Test results published in patent US8188277B2, “Aromatic compounds for suppressing the generation of collagen” (Otsuka Pharmaceutical Co., Ltd., priority 2004, dated 2012).
Counter-ions that a name gives are not always drawn.

melting point	SMILES
158.5 to 161 °C	Cc1cc(N(C)CC(=O)N2CCN(Cc3ccoc3)CC2)ccc1Oc1ccc(NC(=O)c2ccc(C(F)(F)F)cc2)cn1 (as salt: hydrochloride) [compound 792]
183 to 185 °C (dec.)	Cc1cc(N(C)CC(=O)N2CCN(Cc3ccc4c(c3)OCO4)CC2)ccc1Oc1ccc(NC(=O)c2ccc(Cl)c(Cl)c2)cn1 (as salt: hydrochloride) [compound 1512]
165 to 167 °C	CCN(CC(=O)N1CCN(Cc2ccccc2)CC1)c1ccc(Oc2ccc(NC(=O)c3ccc(C(F)(F)F)cc3)cn2)c(C)c1 (as salt: maleate) [compound 1513]
189 to 192 °C	O=C(Nc1ccc(Oc2ccc(C(=O)N3CCOCC3)cc2)cc1)c1ccc(Cl)c(Cl)c1 [Example No. 10]
203 to 204 °C	O=C(Nc1ccc(Oc2ccc(C(=O)N3CCOCC3)cc2)c(F)c1)c1ccc(Cl)c(Cl)c1 [Example No. 11]
222 to 224 °C	O=C(Nc1ccc(Oc2ccc(C(=O)N3CCN(c4ccccn4)CC3)cc2)nc1)c1ccc(C(F)(F)F)cc1 [compound 176]
155 to 157 °C	CC(C)(C)OC(=O)N1CCN(C(=O)CCc2ccc(Oc3ccc(NC(=O)c4ccc(Cl)c(Cl)c4)cc3F)cc2)CC1 [compound 464]
153 to 155 °C	O=C(Nc1ccc(Oc2ccc(CCC(=O)N3CCN(c4cccnc4)CC3)cc2)cc1)c1ccc(Cl)c(Cl)c1 [compound 466]
183 to 185 °C	O=C(Nc1ccc(Oc2ccc(CCC(=O)N3CCN(c4cccnc4)CC3)cc2)c(F)c1)c1ccc(Cl)c(Cl)c1 [compound 467]
116.5 to 118 °C	Cc1cc(N(C)CC(=O)N2CCN(Cc3ccoc3)CC2)ccc1Oc1ccc(NC(=O)c2ccc(Cl)c(Cl)c2)cn1 [compound 718]
216 to 217 °C	CC(=O)N(CC(=O)N1CCN(Cc2ccc3c(c2)OCO3)CC1)c1ccc(Oc2ccc(NC(=O)c3ccc(Cl)c(Cl)c3)cn2)c(C)c1 [compound 725]
149 to 151 °C	CCN(CC(=O)N1CCN(Cc2ccc3c(c2)OCO3)CC1)c1ccc(Oc2ccc(NC(=O)c3ccc(Cl)c(Cl)c3)cn2)c(F)c1 [compound 728]
199 to 201 °C	CN(CC(=O)N1CCN(Cc2ccc3c(c2)OCO3)CC1)c1ccc(Oc2ccc(NC(=O)c3ccc(Cl)c(Cl)c3)cn2)c(F)c1 [compound 729]
233 to 235 °C	CC(=O)N(CC(=O)N1CCN(Cc2ccc3c(c2)OCO3)CC1)c1ccc(Oc2ccc(NC(=O)c3ccc(Cl)c(Cl)c3)cn2)c(F)c1 [compound 730]
161 to 162 °C	CC(=O)N(CC(=O)N1CCN(Cc2ccccc2)CC1)c1ccc(Oc2ccc(NC(=O)c3ccc(C(F)(F)F)cc3)cn2)cc1 [compound 771]
178 to 180 °C	CCN(CC(=O)N1CCN(Cc2ccc3c(c2)OCO3)CC1)c1ccc(Oc2ccc(NC(=O)c3ccc(C(F)(F)F)cc3)cn2)cc1 [compound 774]
170 to 172 °C	CCN(CC(=O)N1CCN(Cc2ccc3c(c2)OCO3)CC1)c1ccc(Oc2ccc(NC(=O)c3ccc(C(F)(F)F)cc3)cn2)c(F)c1 [compound 775]
220 to 221 °C	CN(CC(=O)N1CCN(Cc2ccc3c(c2)OCO3)CC1)c1ccc(Oc2ccc(NC(=O)c3ccc(C(F)(F)F)cc3)cn2)c(F)c1 [compound 776]
174 to 176 °C	CCN(CC(=O)N1CCN(Cc2ccoc2)CC1)c1ccc(Oc2ccc(NC(=O)c3ccc(C(F)(F)F)cc3)cn2)c(OC)c1 [compound 784]

melting point	SMILES
160 to 164 °C	COc1cc(N(C)CC(=O)N2CCN(Cc3ccoc3)CC2)ccc1Oc1ccc(NC(=O)c2ccc(C(F)(F)F)cc2)cn1 [compound 785]
224.5 to 226 °C	Br.CN(CC(=O)N1CCN(Cc2ccc3c(c2)OCO3)CC1)c1cc(F)c(Oc2ccc(C(=O)Nc3ccc(C(F)(F)F)cc3)cn2)cc1F [compound 1037, 6-(4-{[2-(4-Piperonylpiperazin-1-yl)-2-oxoethyl]methylamino}-2,5-difluorophenoxy)-N-(4-trifluoromethylphenyl)nicotinamide hydrobromide]
203 to 204 °C	O=C(Nc1ccc(Oc2ccc(N3CCN(Cc4ccccc4)C3=O)cc2)nc1)c1ccc(C(F)(F)F)cc1 [compound 1181]
186 to 187 °C	O=C(Nc1ccc(Oc2ccc(N3CCN(Cc4ccccc4)C3=O)cc2)nc1)c1ccc(Cl)c(Cl)c1 [compound 1182]
165 to 166 °C	Cc1cc(N2CCCN(Cc3ccc4c(c3)OCO4)C2=O)ccc1Oc1ccc(NC(=O)c2ccc(C(F)(F)F)cc2)cn1 [compound 1183]
122 to 124 °C	Cc1cc(N2CCCN(Cc3ccc4c(c3)OCO4)C2=O)ccc1Oc1ccc(NC(=O)c2ccc(Cl)c(Cl)c2)cn1 [compound 1184]
155 to 157 °C	COc1ccc(CN2CCCN(c3ccc(Oc4ccc(NC(=O)c5ccc(C(F)(F)F)cc5)cn4)c(C)c3)C2=O)cc1OC [compound 1185]
182 to 183.5 °C	Cc1cc(N2CCCN(CC(=O)N3CCN(Cc4ccc5c(c4)OCO5)CC3)C2=O)ccc1Oc1ccc(NC(=O)c2ccc(C(F)(F)F)cc2)cn1 [compound 1186]
117 to 118 °C	COc1ccc(CN2CCCN(c3ccc(Oc4ccc(NC(=O)c5ccc(Cl)c(Cl)c5)cn4)c(C)c3)C2=O)cc1OC [compound 1187]
160 to 161 °C	CCOC(=O)c1ccc(N2CCCN(c3ccc(Oc4ccc(NC(=O)c5ccc(C(F)(F)F)cc5)cn4)c(C)c3)C2=O)cc1 [compound 1188]
188 to 189 °C	Cc1cc(N2CCN(Cc3ccc4c(c3)OCO4)C2=O)ccc1Oc1ccc(NC(=O)c2ccc(C(F)(F)F)cc2)cn1 [compound 1504, N-{6-[2-methyl-4-(2-oxo-3-piperonylimidazolidin-1-yl)phenoxy]pyridin-3-yl}-4-trifluoromethylbenzamide]
102 to 105 °C	CCN(CC(=O)N1CCN(Cc2ccccc2)CC1)c1ccc(Oc2ccc(NC(=O)c3ccc(Cl)c(Cl)c3)cn2)c(C)c1 [compound 1514]
110 to 111 °C	Cc1cc(N(C)CC(=O)N2CCN(Cc3ccccc3)CC2)ccc1Oc1ccc(NC(=O)c2ccc(C(F)(F)F)cc2)cn1 [compound 1515]
111 to 113 °C	Cc1cc(N(C)CC(=O)N2CCN(Cc3ccccc3)CC2)ccc1Oc1ccc(NC(=O)c2ccc(Cl)c(Cl)c2)cn1 [compound 1516]
185.6 to 187 °C	CN(CC(=O)N1CCN(Cc2ccc3c(c2)OCO3)CC1)c1ccc(Oc2ccc(NS(=O)(=O)c3ccc(Cl)c(Cl)c3)cn2)c(F)c1 [compound 1615, 3,4-dichloro-N-[6-(2-fluoro-4-{methyl[2-oxo-2-(4-piperonylpiperazin-1-yl)ethyl]amino}phenoxy)pyridin-3-yl]benzenesulfonamide]
191 to 192 °C	O=C(Nc1ccc(Oc2ccc(N3CCN(S(=O)(=O)c4ccccc4)CC3)cc2)cc1)c1ccc(Cl)c(Cl)c1 [compound 2031, N-{4-[4-(4-benzenesulfonylpiperazin-1-yl)phenoxy]phenyl}-3,4-dichlorobenzamide]
171 to 173 °C	O=C(Nc1ccc(Oc2ccc(N3CCN(C(=O)COc4ccccc4)CC3)cc2)cc1)c1ccc(Cl)c(Cl)c1 [compound 2052]
116 to 118 °C	O=C(Nc1ccc(Oc2ccc(N3CCN(C(=O)c4ccc5c(c4)OCO5)CC3)cc2)cc1)c1ccc(Cl)c(Cl)c1 [compound 2053]
